Assay results published in patent US20230416247A1, “DRUG-LIKE MOLECULES AND METHODS FOR THE THERAPEUTIC TARGETING OF MICRORNA-21” (University of Washington, priority 2020, published 2023).
“Also recorded” adds a separate entry of the source.

What was measured:
pre-miR-21 = assay: 1D 1H imino NMR / NOESY titration of pre-miR-21 with compound; assay type: binding, human; details: for closing of the apical loop of pre-miR-21 (new imino signals / base pairs): 1 mM pre-miR-21 titrated to 1.5 mM compound, 800 MHz, 5° C., 50 mM deuterated Tris pH 6.5, 50 mM NaCl; for binding to pre-miR-21 (NMR data): FIGS. 7A-7D
Experimental: All data were collected at 800 Mhz and at 5° C. in buffer containing 50 mM deuterated Tris at pH 6.5 and 50 mM NaCl.
Remarkably, the compounds have the unique capacity to ‘close the loop’ of pre-miR-21. This large change in RNA structure is shown in FIGS. 7A-7D, compared to the unbound RNA which are shown at the bottom of FIGS. 7A and 7C. […] The effect is very similar to what is observed with mutations that stabilize the loop structure by inducing stable formations of base pairs in place of unstable base pairs, and that also reduce miR-21 expression in both biochemical experiments and in cells, as reported in the literature. Accordingly, the compounds of formula (I) are specific pre-miR-21 binding compounds with the capacity to inhibit enzymatic processing of this oncogenic miRNA sequence.
RNA Transcription. All RNAs for ligand screening and structural or biochemical work were prepared in house using in vitro transcription on a large scale (typically 10 mL). RNA transcription and purification protocols used purified DNA oligonucleotide templates (IDT) and T7 RNA polymerase. Briefly, 1 mL of 8 μM TOP DNA (5′-CTATAGTGAGTCGTATTA-3′ (SEQ ID NO: 1)), corresponding to the phage T7 RNA polymerase promoter region, was annealed to 80 μL of 100 μM template sequences with 13 mM MgCl2, heated to 95° C. for […] then allowed to anneal to room temperature over 20 min. The annealing mixture was incubated with 5 mM of each of the four NTPs (ATP, GTP, UTP and CTP, from Sigma), transcription buffer, 8% PEG-8000 and 35 mM magnesium chloride with 0.4 mg/mL T7 RNA polymerase expressed and purified using established methods. All RNA samples are purified from crude transcriptions by 20% denaturing polyacrylamide gel electrophoresis (PAGE), electroeluted and concentrated by ethanol precipitation. The samples are re-dissolved in 12 mL of high salt wash (700 mM NaCl, 200 mM KCl, in 10 mM potassium phosphate at pH 6.5, with 10 μM EDTA to chelate any divalent ions), concentrated using Centriprep conical concentrators ([…] MWC, Millipore). The RNA was then slowly exchanged into low salt storage buffer (10 mM potassium phosphate at pH 6.5, with 10 mM NaCl and 10 μM EDTA). Prior to NMR experiments, all RNA samples were finally desalted using NAP-10 gravity columns, lyophilized and re-dissolved in ‘screening buffer’ or ‘structure buffer’ (see below), then annealed by heating for 4 min to 90° C. and snap cooling at −20° C.

[1] = test system: miR-16, miR-28, miR-182 in pancreatic (ASPC1) cells; assay: qRT-PCR of miR-16, miR-28, miR-182 in ASPC1 cells; assay type: cell-based, human; details: ASPC1, 24-72 hours post incubation, vs DMSO
Experimental: Levels of each microRNA were measured at different times post incubation (24-72 hours) by standard qRT-PCR, normalized to internal controls (U6 or U8 snRNA), in both gastric (AGC) and pancreatic (ASPC1) cell lines. Levels of the microRNA are generally the same, within experimental uncertainty, in the absence (DMSO) or presence of compound −0052 (30).
FIGS. 15A-15F show the levels of mature miR-16, miR-28, and miR-182 are not consistently affected by the compounds in both gastric (AGS) and pancreatic (ASPC1) cell lines, over multiple time scales (24-72 hours), relative to control where DMSO was added, but no compound.
Cell line maintenance. Using the Cancer Cell Line Encyclopedia (CCLE), in-house cancer cell lines were screened to identify cancer and tissue types with varying levels of miR-21 expression. Experiments were performed using the human-derived cell lines AGS (gastric cancer) and AsPC-1 (pancreatic cancer). […]
(§1) Quantitative real time PCR analysis. […] RNA concentration was assessed with the NanoDrop ND-1000 spectrophotometer (ThermoFisher Scientific). […] Expression of miR-21 was assessed utilizing the TaqMan microRNA assay (Applied Biosystems). […] All experiments were performed in triplicate, with all samples normalized to the internal controls and relative expression levels calculated using the 2^ΔΔCt method.

[2] = test system: mature miR-10b in AGS cells; assay: qRT-PCR of mature miR-10b in AGS cells; assay type: cell-based, human; details: 10 nmoles, 48 hours, relative to DMSO control
Experimental: FIGS. 14A-14D compare levels of mature miR-10b and pre-miR-10b measured in gastric adenocarcinoma (AGS) (FIGS. 14A and 14B, respectively) and pancreatic cancer cell line (ASPC 1) (FIGS. 14C and 14D, respectively), normalized to internal controls (U6 or U8 snRNA), in the presence of 10 nmoles of palbociclib (a negative control not expected to directly affect miRNA levels) and compounds −0045 and −0052, 48 hours after incubation, relative to DMSO control, and measured by standard qRT-PCR. We notice that levels of pre-miR-10b are very low in both cell lines, rendering the data very uncertain. Statistically significant changes are labeled with asterisks.
In order to investigate whether inhibition was specific to miR-21, levels of mature miR-10b and pre-miR-10b were examined in the same cell lines (FIGS. 14A-14D); this is another oncogenic microRNA implicated in metastasis. […]
as §1

O=c1[nH]c(Nc2ccc(N3CCNCC3)cn2)nc2cccnc12 [Compound 25]
closing of the apical loop of pre-miR-21 (new imino signals / base pairs) (pre-miR-21): formation of the putative tandem UG/GU wobble pair in the apical loop; also recorded: emergence of new imino NH chemical shift resonances for the apical loop portion
binding to pre-miR-21 (NMR data) (pre-miR-21): bind to pre-miR-21 strongly

O=c1[nH]c(Nc2ccc(N3CCNCC3)cn2)nc2cnccc12 [Compound 30]
closing of the apical loop of pre-miR-21 (new imino signals / base pairs) (pre-miR-21): emergence of new imino NH chemical shift resonances for the apical loop portion
binding to pre-miR-21 (NMR data) (pre-miR-21): bind to pre-miR-21 strongly
cellular levels of miR-16, miR-28, miR-182 [1]: does not affect cellular levels
reduction of levels of mature miR-10b [2]: about 2 fold
